Laboratory results reported in patent US20220042962A1, “METHOD FOR […] SITE-[…] WATER QUALITY […] OF RIVER BASIN” (DALIAN UNIVERSITY OF TECHNOLOGY, priority 2020, published 2022).

System: aquatic species in Liaohe River Basin
Assay: Derivation of site-specific water quality criterion (species sensitivity distribution and toxicity sorting)

## ammonia nitrogen
Liaohe River Basin, four most sensitive resident sensitive and endemic species
  water quality criterion value derived by the toxicity sorting method: 15.91 mg/L
Liaohe River Basin, safety coefficient 2
  water quality criterion value derived by the species sensitivity method: 13.47 mg/L
Liaohe River Basin, weights 0.3 and 0.7, pH=7.0 and temperature=20° C.
  water quality criterion value (validation value): 15.18 mg/L
Logistic SSD model, before division by safety coefficient 2
  X value at Y=0.05 transformed to a base-10 exponent: 26.93 mg/L
Logistic model, cumulative probability Y=0.05, pH=7.0, temperature=20° C.
  X (log10 toxicity value) at Y=0.05 on the logistic SSD fitting curve: 1.4302
